Reference: ChEMBL document CHEMBL1201862, “PubChem BioAssay data set” (2004)
Activity calls are given as the source filed them. Rule as the data show it, for most assays here: actives have a measured EC50 and inactives only a lower limit.

Key:
[1] = alpha-synuclein stem-loop luciferase translation blockers – H4 neuroglioma cells, luminescence, confirmation (AID 1988); assay type: functional, cell-based
[2] = luciferase reporter signal suppression in cells – H4 neuroglioma cells, luminescence, dose response (AID 1990); assay type: functional, cell-based
[3] = Luminescence Cell-Based Dose Response HTS to Identify Inhibitors of 5'UTR Stem-Loop Driven Prion Protein mRNA Translation in H4 Neuroglioblastoma Cells. [Related pubchem assays: 1827 (Project Summary), 1813 (Primary HTS)]; assay type: functional
cells = assay type: functional
[4] = target: T1, Heat shock factor protein 1 (Mus musculus, UniProt P38532); assay: decrease of HSF1-responsive luciferase luminescence – cell-based, NIH3T3, dose retest, confirmation (AID 2382); assay type: functional;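 also: NIH3T3 fibroblasts with HSF1-driven luciferase reporter stressed by proteasome inhibitor MG132; luminescence from HSF1-driven luciferase expression after 8 hours of MG132 stress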
T1 sequence (P38532 whole entry): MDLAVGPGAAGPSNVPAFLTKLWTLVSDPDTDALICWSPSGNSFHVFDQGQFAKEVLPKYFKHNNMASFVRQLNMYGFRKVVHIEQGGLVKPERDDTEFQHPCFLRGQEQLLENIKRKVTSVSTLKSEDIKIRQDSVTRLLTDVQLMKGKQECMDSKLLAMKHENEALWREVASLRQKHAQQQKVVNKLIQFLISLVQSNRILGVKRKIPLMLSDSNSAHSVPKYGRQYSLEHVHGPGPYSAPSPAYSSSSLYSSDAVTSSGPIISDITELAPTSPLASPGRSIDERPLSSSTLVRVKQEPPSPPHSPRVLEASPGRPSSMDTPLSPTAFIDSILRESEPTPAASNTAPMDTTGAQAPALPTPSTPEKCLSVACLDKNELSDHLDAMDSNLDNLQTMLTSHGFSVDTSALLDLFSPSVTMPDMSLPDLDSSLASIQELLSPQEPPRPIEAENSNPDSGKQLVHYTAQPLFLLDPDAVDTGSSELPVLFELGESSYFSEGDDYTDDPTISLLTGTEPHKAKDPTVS

Paired box protein Pax-8 = Paired box protein Pax-8 (Homo sapiens, UniProt Q06710); assay: PAX8 transcriptional activity inhibition in RMG-I – RMG-I cells, luciferase, cherry-pick, dose response (AID 687027); assay type: functional, cell-based;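 also: luciferase reporter driven by Pax8 target thyroperoxidase promoter measured by SteadyGlo luminescence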
H9c2 = assay: cells; assay type: functional, cell-based; conditions: Rattus norvegicus, H9c2, Myocardium;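 also: confirmatory concentration-response retest of ultra-high-throughput screening hits for modulation of myocardial damage; cell death induced by hydrogen peroxide oxidative stress; compound pretreatment for 60 min then peroxide exposure for 2 h; potency is for protecting the cells against peroxide damage rather than for killing them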
[5] = Luminescence Cell-Based Dose Response HTS to Identify Activators of Luciferase Translation or Activity in H4 […] Cells. [Related pubchem assays: 1829 (Project Summary), 1814 (Primary HTS)]; assay type: functional
[6] = Luminescence Cell-Based Dose Confirmation HTS to Identify Inhibitors of Platelet Dense Granule Release. [Related pubchem assays: 1663 (Primary HTS), 1678 (Summary of Project)]; assay type: functional
[7] = target: T1, Heat shock factor protein 1; assay: enhancement of HSF1-driven luciferase signal – cell-based, NIH3T3, luminescence, dose retest, confirmation (AID 435004); assay type: functional;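 also: stress induced by proteasome inhibitor MG132 added 30 min after compound; luciferase reporter driven by HSF1 response element in NIH3T3 cells; actives raise luminescence as potentiators of the MG132 stress response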
[8] = target: Luciferin 4-monooxygenase (Photinus pyralis, UniProt P08659); assay: inhibition of purified Photinus pyralis luciferase – biochemical, luminescence, dose response (AID 1891)
Streptococcus = assay: GAS UMAA2166 growth inhibition – luminescence, BacTiterGlo, counter-screen for streptokinase expression inhibitor project, dose response (AID 1915); assay type: functional, organism-based;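 also: potency for reduction of bacterial viability or growth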
Streptokinase A = target: T2, Streptokinase A (Streptococcus pyogenes serotype M1, UniProt P10520); assay: viability-normalized secreted streptokinase activity reduction – plasminogen activation absorbance, OD405, dose response (AID 1914); assay type: functional, Streptococcus pyogenes M1 GAS;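 also: secreted streptokinase activity via plasminogen activation per viability signal from cell pellet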
T2 sequence (P10520 whole entry): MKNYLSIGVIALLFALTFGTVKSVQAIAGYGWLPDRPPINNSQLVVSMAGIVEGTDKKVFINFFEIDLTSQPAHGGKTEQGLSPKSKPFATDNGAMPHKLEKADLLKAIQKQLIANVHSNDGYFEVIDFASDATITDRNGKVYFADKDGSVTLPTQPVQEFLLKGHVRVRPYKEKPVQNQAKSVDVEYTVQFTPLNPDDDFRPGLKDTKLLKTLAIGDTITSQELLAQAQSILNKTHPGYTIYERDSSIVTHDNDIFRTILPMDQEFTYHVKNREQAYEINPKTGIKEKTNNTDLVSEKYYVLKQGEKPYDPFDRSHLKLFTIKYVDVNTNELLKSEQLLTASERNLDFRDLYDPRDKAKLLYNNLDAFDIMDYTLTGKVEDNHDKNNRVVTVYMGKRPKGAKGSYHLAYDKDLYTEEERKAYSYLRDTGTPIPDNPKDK

[9] = system: Streptococcus sp. 'group A'; assay: Streptococcus pyogenes SK(-)GAS viability under kanamycin – luminescence, BacTiterGlo, confirmation, counter-screen for streptokinase expression inhibitor project, dose response (AID 1900); assay type: functional, organism-based
[10] = Luminescence Cell-Based Dose Retest to Confirm Inhibitors of Cancer Stem Cells. [Related pubchem assays (depositor defined):AID2717, AID2721]; assay type: functional, Homo sapiens; conditions: Homo sapiens
INS1 = assay: INS-1E survival protection against cytokine death – cell-based, luminescence, retest, dose response (AID 449756); assay type: functional; conditions: Rattus norvegicus;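 also: cell death triggered by IL-1 beta plus TNF-alpha plus IFN-gamma mixture; protective hits raise ATP signal compared with cytokine alone wells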
H4 = assay: Luminescence Cell-Based Dose Response HTS to Identify Activators of 5'UTR Stem-Loop Driven Prion Protein mRNA Translation in H4 Neuroglioblastoma Cells. [Related pubchem assays: 1829 (Project Summary), 1814 (Primary HTS)]; assay type: functional; conditions: Homo sapiens
[11] = Trypanosoma cruzi growth suppression in host cells – NIH3T3 host cells, beta-gal luminescence, confirmation (AID 2044); assay type: functional, cell-based;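 also: intracellular parasites grown in NIH/3T3 mouse fibroblasts as host cells; luminescent beta-galactosidase reporter signal from transgenic T. cruzi replicating inside host cells; inhibitors lower the luminescence signal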
[12] = NIH3T3 cell viability loss – ATP luminescence, mouse fibroblasts, counter-screen, dose response (AID 2010); assay type: functional, cell-based;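 also: cells exposed to compound for about 90 hours before reading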
Cytochrome P450 3A4 = Cytochrome P450 3A4 (Homo sapiens, UniProt P08684);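 also: CYP3A4 tested as one member of a cytochrome P450 panel screen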
Sequence of Cytochrome P450 3A4 (P08684 whole entry): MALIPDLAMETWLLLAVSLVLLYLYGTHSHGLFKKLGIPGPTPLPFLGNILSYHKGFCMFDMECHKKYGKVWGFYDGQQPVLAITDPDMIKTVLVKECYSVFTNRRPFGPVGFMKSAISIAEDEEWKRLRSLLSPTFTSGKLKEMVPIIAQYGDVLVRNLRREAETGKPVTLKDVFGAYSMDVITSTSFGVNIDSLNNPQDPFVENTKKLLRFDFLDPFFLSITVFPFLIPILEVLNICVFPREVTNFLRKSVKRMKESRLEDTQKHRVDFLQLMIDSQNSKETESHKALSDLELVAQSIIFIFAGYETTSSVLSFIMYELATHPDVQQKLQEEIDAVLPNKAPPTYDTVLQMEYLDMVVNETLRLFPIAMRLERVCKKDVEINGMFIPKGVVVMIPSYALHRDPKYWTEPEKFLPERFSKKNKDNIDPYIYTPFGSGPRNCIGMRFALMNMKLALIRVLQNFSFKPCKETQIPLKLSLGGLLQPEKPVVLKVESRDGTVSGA

Sequence of Paired box protein Pax-8 (Q06710 whole entry): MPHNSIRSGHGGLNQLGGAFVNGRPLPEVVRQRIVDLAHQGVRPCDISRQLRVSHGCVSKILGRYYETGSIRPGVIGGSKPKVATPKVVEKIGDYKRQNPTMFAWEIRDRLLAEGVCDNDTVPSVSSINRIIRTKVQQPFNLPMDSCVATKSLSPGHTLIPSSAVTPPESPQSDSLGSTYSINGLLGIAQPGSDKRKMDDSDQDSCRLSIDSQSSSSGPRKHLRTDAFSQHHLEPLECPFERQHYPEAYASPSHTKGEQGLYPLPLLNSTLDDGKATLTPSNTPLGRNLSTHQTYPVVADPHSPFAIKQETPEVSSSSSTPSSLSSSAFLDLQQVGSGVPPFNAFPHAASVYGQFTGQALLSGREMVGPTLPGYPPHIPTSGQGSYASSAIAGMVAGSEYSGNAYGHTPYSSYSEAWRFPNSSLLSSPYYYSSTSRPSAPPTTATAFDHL
Sequence of Luciferin 4-monooxygenase (P08659 whole entry): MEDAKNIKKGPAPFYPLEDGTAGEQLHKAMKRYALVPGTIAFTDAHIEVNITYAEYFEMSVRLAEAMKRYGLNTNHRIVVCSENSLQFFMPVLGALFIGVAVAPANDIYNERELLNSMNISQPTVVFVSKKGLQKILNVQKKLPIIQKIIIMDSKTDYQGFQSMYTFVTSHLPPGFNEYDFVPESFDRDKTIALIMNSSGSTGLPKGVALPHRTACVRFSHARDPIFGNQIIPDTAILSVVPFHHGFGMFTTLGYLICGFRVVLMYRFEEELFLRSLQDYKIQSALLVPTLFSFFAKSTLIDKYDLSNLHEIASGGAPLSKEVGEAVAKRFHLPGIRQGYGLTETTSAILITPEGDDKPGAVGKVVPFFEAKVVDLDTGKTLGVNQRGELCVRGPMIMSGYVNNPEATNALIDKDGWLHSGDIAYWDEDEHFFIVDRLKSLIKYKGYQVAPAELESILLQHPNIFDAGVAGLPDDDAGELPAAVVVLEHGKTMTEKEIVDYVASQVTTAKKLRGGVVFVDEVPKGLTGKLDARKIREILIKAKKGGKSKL

Cc1ccc(NC(=O)CN(C)C(S)=NC2CC2)cc1
EC50 [1]: > 120 µM (not active)
EC50 [2]: > 120 µM (not active)
EC50 [3]: > 120 µM (not active)

COc1cccc(NC(=O)c2cc3ccccc3oc2=O)c1
IC50 (cells): 34.4 µM (active)

CC(=O)c1ccc(OCC(O)CN2CCN(Cc3ccc4c(c3)OCO4)CC2)cc1 (configuration not stated)
EC50 [4]: > 195 µM (not active)

C[C@@H]1CCCCO[C@H](CN(C)CC2CCCCC2)[C@H](C)CN([C@H](C)CO)C(=O)c2cc(NS(=O)(=O)c3ccc(Cl)cc3)ccc2O1
AC50 (Paired box protein Pax-8): 5.21 µM (active)

O=C(c1ccco1)N1N=C(c2ccc(Br)cc2)CC1(O)C(F)(F)F (configuration not stated)
AC50 (Paired box protein Pax-8): 27.1 µM (active)

COc1ccc(Nc2nc(C(=O)N3CCc4cc(OC)c(OC)cc4C3)cs2)cc1
IC50 (H9c2): > 79 µM (inactive)

O=C(COC(=O)c1cccs1)c1ccc2c(c1)OCCO2
EC50 [5]: < 0.1 µM (active)
EC50 [4]: 0.213 µM (active)

COc1ccc(/C=N/NC(=O)c2ccncc2)cc1COc1ccc(NC(C)=O)cc1
EC50 [1]: > 120 µM (not active)
EC50 [2]: > 120 µM (not active)
EC50 [3]: > 120 µM (not active)

CCN(CC)C(=O)c1[nH]cnc1C(=O)NCC(=O)OCc1ccccc1
IC50 (H9c2): 6.99 µM (active)

COc1ccccc1NC(=O)N(Cc1ccco1)Cc1cc2ccc(C)c(C)c2nc1O
EC50 [6]: > 112 µM (not active)
EC50 [7]: > 260 µM (inactive)
EC50 [8]: > 112 µM (not active)
EC50 [1]: 11 µM (active)
EC50 [2]: > 60 µM (not active)
EC50 [3]: 27.6 µM (active)

CC(C)(C)OC(=O)C[C@@H]1C/C=C\C[C@@H](CC(=O)N[C@@H](CO)Cc2ccccc2)C(=O)NC[C@@H](c2ccccc2)OC1=O
IC50 (H9c2): 11.1 µM (active)

O=C(Nc1cnn(Cc2ccc(F)cc2)c1)c1cc(-c2ccco2)on1
EC50 [4]: > 195 µM (not active)

CC(C)(C)c1ccc(/C=N/N2C(=O)CSC2=S)cc1
EC50 [4]: 44.1 µM (active)

CC(=O)NCc1ccc(-c2csc(NC(=O)CCc3nc(O)c4ccccc4n3)n2)s1
IC50 (H9c2): > 79 µM (inactive)

c1ccc(N2CCOCC2)c(Nc2nc3ccccc3n3cnnc23)c1
IC50 (H9c2): > 79 µM (inactive)

O=C(Nc1nnc(-c2ccc(Cl)cc2)o1)C1=COCCO1
IC50 (cells): 4.83 µM (active)

COc1ccc(OCC(O)Cn2c(Nc3cccc(C)c3)nc3c2c(=O)n(C)c(=O)n3C)cc1 (configuration not stated)
IC50 (H9c2): 10.1 µM (active)

CCc1ccccc1N(CC(=O)NCc1ccco1)C(=O)CCC(=O)Nc1ccccn1
EC50 [4]: 35.8 µM (active)

COc1cc2c(cc1OC)CN(C(=O)CNS(=O)(=O)c1ccc(C)c(C)c1)CC2
EC50 [1]: > 120 µM (not active)
EC50 [2]: > 120 µM (not active)
EC50 [3]: > 120 µM (not active)

Sc1nnc(C2CCCCC2)n1/N=C/c1cccc(Cl)c1Cl
EC50 (Streptococcus): 7.5 µM (active)
EC50 (Streptokinase A): > 150 µM (not active)
EC50 [9]: 4.7 µM (active)
EC50 [1]: 15.1 µM (active)
EC50 [2]: 15.2 µM (active)
EC50 [3]: > 120 µM (not active)

CN(CC(=O)Nc1cccc(F)c1)C(=O)CCc1nc(O)c2ccccc2n1
IC50 (H9c2): > 79 µM (inactive)

CSCCC(c1nnnn1-c1ccc2c(c1)OCCO2)N1CCC(n2c(O)nc3ccccc32)CC1 (configuration not stated)
AC50 (Paired box protein Pax-8): 2.14 µM (active)

CCCCNC(=O)c1ccc(Cn2c(=S)[nH]c3c([nH]c4ccc(OC)cc43)c2=O)cc1
AC50 [10]: 0.687 µM (active)
AC50 (INS1): 5.01 µM (active)
EC50 [4]: 3.02 µM (active)

CC(C)OCCCNC(=O)c1cccc(NC(=O)c2ccccc2)c1
AC50 (Paired box protein Pax-8): 41.6 µM (active)

Cn1c(C[S+]([O-])Cc2c(Cl)cccc2Cl)nnc1SCc1ccc(Cl)cc1 (configuration not stated)
EC50 [1]: 13.8 µM (active)
EC50 [2]: > 120 µM (not active)
EC50 [3]: > 120 µM (not active)

N#C/C(=C/c1ccc(Br)o1)C(N)=O
EC50 [4]: > 195 µM (not active)

CCOc1ccc(S(=O)(=O)N2CCC(C(=O)N3CCOCC3)CC2)cc1C
EC50 [1]: > 120 µM (not active)
EC50 [2]: 16.4 µM (active)
EC50 [3]: > 120 µM (not active)

CC(=O)Oc1ccc(C)cc1-n1nc2ccccc2n1
EC50 (H4): 2.63 µM (active)
EC50 [5]: 0.445 µM (active)

O=C(O)C1CCCCC1C(=O)Nc1cccc(C(=O)N2CCCCC2)c1 (configuration not stated)
EC50 [4]: > 195 µM (not active)

O=C(Nc1ccc2c(c1)nc(O)c1ccccc12)C(F)(F)F
IC50 (H9c2): > 79 µM (inactive)

COc1ccc2c(c1)-c1c(sn(-c3ccccc3)c1=S)C(C)(C)N2
EC50 [7]: > 260 µM (inactive)

CC(C)NC(=O)CN(C(=O)CCC(=O)Nc1nccs1)c1ccc2c(c1)OCO2
EC50 [7]: > 260 µM (inactive)

CC(C)(C)OC(=O)C[C@H]1C/C=C\C[C@H](CC(=O)N[C@H](CO)Cc2ccccc2)C(=O)N[C@H](Cc2ccccc2)COC1=O
IC50 (H9c2): > 79 µM (inactive)

CCOc1ccc(S(=O)(=O)c2c(C(=O)c3ccccc3)cnc3cc4c(cc23)OCCO4)cc1
EC50 [7]: > 260 µM (inactive)
EC50 [11]: 2.43 µM (active)
EC50 [12]: 17.8 µM (active)

COc1cccc(CC2(CO)CCN(S(=O)(=O)c3ccc(OC)cc3OC)CC2)c1
EC50 [4]: > 195 µM (not active)

O=C(COC(=O)CCc1nc(O)c2ccccc2n1)NC(c1ccccc1)c1ccccc1
IC50 (H9c2): > 79 µM (inactive)

CS(=O)(=O)c1nc(-c2ccccc2)cc(-c2ccccc2)c1C#N
AC50 (Cytochrome P450 3A4): 22.4 µM (inconclusive)
EC50 [7]: 16.7 µM (active)

Cc1ccc(OCC(=O)Nc2nc(-c3ccccn3)cs2)c(C)c1
IC50 (H9c2): > 79 µM (inactive)
EC50 (Streptococcus): 4.62 µM (active)
EC50 [9]: 1.08 µM (active)

COC(=O)c1ccccc1NC(=O)/C=C/c1cc(OC)c(OC)c(OC)c1
IC50 (H9c2): 10.5 µM (active)

COc1cc2c3c(c1OC)C1(C=CC(=NO)C=C1)CC3N(C(C)=O)CC2 (configuration not stated)
EC50 [1]: > 120 µM (not active)
EC50 [2]: > 120 µM (not active)
EC50 [3]: > 120 µM (not active)

O=C(Cn1[nH]c(=O)c2ccccc2c1=O)N1CC=C(c2ccccc2)CC1
IC50 (H9c2): > 79 µM (inactive)

CCOc1ccc(S(=O)(=O)NN=C(S)Nc2ccc(Br)cc2)cc1
EC50 [7]: > 260 µM (inactive)

C/C(CCc1oc2c(Br)cc(Br)cc2c1-c1ccc(C)o1)=N\O
EC50 [7]: > 260 µM (inactive)

Cc1ccc(NC(=O)c2[nH]cnc2C(=O)NCCCCCCNC(=O)c2nc[nH]c2C(=O)Nc2ccc(C)cc2)cc1
IC50 (H9c2): > 79 µM (inactive)

COc1ccc(-c2cc(C(F)(F)F)n3nc(C(=O)N4CCN(C(=O)c5ccco5)CC4)cc3n2)cc1
IC50 (H9c2): 13 µM (active)

Cc1ccccc1NC(S)=NNC(=O)c1csc2c1CCC(C)C2 (configuration not stated)
EC50 [4]: < 0.16 µM (active)

Cc1ccc(C)c(OCCn2cc(/C=C(\C#N)C(=O)NCc3ccco3)c3ccccc32)c1
EC50 [1]: 25.1 µM (active)
EC50 [2]: > 120 µM (not active)
EC50 [3]: 17.1 µM (active)

CC1CN(C(=O)C(C)N2C(=O)c3ccccc3C2=O)CC(C)O1 (configuration not stated)
EC50 [4]: 33.4 µM (active)

O=C(CN1CCN(c2ccccn2)CC1)Nc1ccc([N+](=O)[O-])cc1C(=O)Nc1ccccc1F
IC50 (H9c2): > 79 µM (inactive)
